Assay results reported in patent US20200261421A1, “HETEROCYCLIC COMPOUNDS AS HIV PROTEASE INHIBITORS” (Merck Sharp & Dohme Corp., priority 2016, published 2020).

Target: T1, wild-type HIV-1 protease (Human immunodeficiency virus type 1 group M subtype B, UniProt P04585)
T1 construct: Escherichia coli expressed wild-type HIV-1 protease protein; made in house; host or cells: Escherichia coli
Experiment: Assay for Inhibition of Microbial Expressed HIV Protease
Assay type: biochemical
Conditions: Escherichia coli expressed wild-type HIV-1 protease, peptide substrate cleavage; mean of at least two independent experiments
Method: Inhibition of Escherichia coli expressed wild-type HIV-1 protease protein was carried out with a peptide substrate [Val-Ser-Gln-Asn-Wnaphtyl)Ala-Pro-Ile-Val]. The inhibitor compound was preincubated with HIV-1 protease enzyme in assay buffer (50 mM sodium acetate, pH 5.5, 100 mM NaCl, and 0.1% BSA) for 30 minutes at room temperature. Peptide substrate was added to 400 μM in a total volume of 20 μL containing 20 pM HIV-1 protease (final) after which the reaction was incubated for 1 hour at 30° C. The reaction was quenched by the addition of formic acid and HIV protease inhibitor indinavir to 0.012% and 150 nM final concentrations, respectively. Product formation was determined after separation of product and substrate on a ZORBAX Eclipse XDB-C18 column (Aligent Technologies, Santa Clara, Calif., USA) connected to an API 4000™ mass spectrometer (AB Sciex, Pte. Ltd., Concord Ontario, Canada) with multiple reaction monitoring (transitions were 644.5/428.9 and 615.4/422.2 (M1/M3) for product and indinavir respectively). The extent of inhibition of the reaction was determined from the peak area of the products. Analysis of the products, independently synthesized, provided quantitation standards and confirmation of the product composition. […] Ic50's refer to the 50% inhibition of the cleavage of a peptide substrate by hiv protease.
Data shown in the table reflects the mean of at least two independent experiments.

Structure (SMILES) | IC50 [nM]
CN(C)C(=O)c1cccc(CN2C(=N)NC(c3ccc(F)cc3)(c3cccc(-c4cccc(C#N)c4)c3)C2=O)c1 (centres unmarked) [Example 58, 3-{[4-(3'-cyanobiphenyl-3-yl)-4-(4-fluorophenyl)-2-imino-5-oxoimidazolidin-1-yl]methyl}-N,N-dimethylbenzamide] | 63.4
CN(Cc1ccccn1)C(=O)c1cccc(CN2C(=N)NC(c3ccc(F)cc3)(c3ccc(F)cc3)C2=O)c1 [Example 59, 3-{[4,4-bis(4-fluorophenyl)-2-imino-5-oxoimidazolidin-1-yl]methyl}-N-methyl-N-(pyridin-2-ylmethyl)benzamide] | 65.9
CN(Cc1cccc(S(C)(=O)=O)c1)C(=O)c1cccc(CN2C(=N)NC(c3ccc(F)cc3)(c3ccc(F)cc3)C2=O)c1 [Example 60, 3-{[4,4-bis(4-fluorophenyl)-2-imino-5-oxoimidazolidin-1-yl]methyl}-N-methyl-N-[3-(methylsulfonyl)benzyl]benzamide] | 69.2
COc1ccccc1CN(C)C(=O)c1cccc(CN2C(=N)NC(c3ccc(F)cc3)(c3ccc(F)cc3)C2=O)c1 [Example 61, 3-{[4,4-bis(4-fluorophenyl)-2-imino-5-oxoimidazolidin-1-yl]methyl}-N-(2-methoxybenzyl)-N-methylbenzamide] | 76.7
CN(C)C(=O)c1cccc(CN2C(=N)NC(c3ccccc3)(c3ccc(Br)cc3)C2=O)c1 (centres unmarked) [Example 62, 3-{[4-(4-bromophenyl)-2-imino-5-oxo-4-phenylimidazolidin-1-yl]methyl}-N,N-dimethylbenzamide] | 77.3
CN(C)C(=O)c1cccc(CN2C(=N)NC(c3ccccc3)(c3cccc(-c4ccccc4)c3)C2=O)c1 (centres unmarked) [Example 63, 3-[(4-biphenyl-3-yl-2-imino-5-oxo-4-phenylimidazolidin-1-yl)methyl]-N,N-dimethylbenzamide] | 83.4
CN(Cc1ccc(Cl)cc1)C(=O)c1cccc(CN2C(=N)NC(c3ccc(F)cc3)(c3cccc(-c4cccc(C#N)c4)c3)C2=O)c1 (centres unmarked) [Example 64, N-(4-chlorobenzyl)-3-{[4-(3'-cyanobiphenyl-3-yl)-4-(4-fluorophenyl)-2-imino-5-oxoimidazolidin-1-yl]methyl}-N-methylbenzamide] | 86.9
CN(Cc1ccccc1F)C(=O)c1cccc(CN2C(=N)NC(c3ccc(F)cc3)(c3ccc(F)cc3)C2=O)c1 [Example 65, 3-{[4,4-bis(4-fluorophenyl)-2-imino-5-oxoimidazolidin-1-yl]methyl}-N-(2-fluorobenzyl)-N-methylbenzamide] | 89.9
CN(Cc1ccccc1Cl)C(=O)c1cccc(CN2C(=N)NC(c3ccc(F)cc3)(c3ccc(F)cc3)C2=O)c1 [Example 66, 3-{[4,4-bis(4-fluorophenyl)-2-imino-5-oxoimidazolidin-1-yl]methyl}-N-(2-chlorobenzyl)-N-methylbenzamide] | 90.5
N#Cc1ccc(CNC(=O)c2cccc(CN3C(=N)NC(c4ccc(F)cc4)(c4ccc(F)cc4)C3=O)c2)cc1 [Example 67, 3-{[4,4-bis(4-fluorophenyl)-2-imino-5-oxoimidazolidin-1-yl]methyl}-N-(4-cyanobenzyl)benzamide] | 95.2
CN(Cc1cccc(F)c1)C(=O)c1cccc(CN2C(=N)NC(c3ccc(F)cc3)(c3ccc(F)cc3)C2=O)c1 [Example 68, 3-{[4,4-bis(4-fluorophenyl)-2-imino-5-oxoimidazolidin-1-yl]methyl}-N-(3-fluorobenzyl)-N-methylbenzamide] | 96.6
CC(C)CC1(c2cccc(F)c2)NC(=N)N(Cc2cccc(C(=O)N(C)Cc3ccc(C#N)cc3)c2)C1=O (centres unmarked) [Example 69, N-(4-cyanobenzyl)-3-{[4-(3-fluorophenyl)-2-imino-4-(2-methylpropyl)-5-oxoimidazolidin-1-yl]methyl}-N-methylbenzamide] | 97.1
CC(C)CC1(CC(C)C)NC(=N)N([C@H](C)c2cccc(C(=O)N(C)Cc3ccc(F)cc3)c2)C1=O [Example 70, N-(4-fluorobenzyl)-3-{(1R)-1-[2-imino-4,4-bis(2-methylpropyl)-5_ oxoimidazolidin-1-yl]ethyl}-N-methylbenzamide] | 99.1
CC(C)CC1(c2ccccc2)NC(=N)N(Cc2ccc(Cl)c(C(=O)NCc3ccc(C#N)cc3)c2)C1=O (centres unmarked) [Example 71, 2-chloro-N-(4-cyanobenzyl)-5-{[2-imino-4-(2-methylpropyl)-5-oxo-4-phenylimidazolidin-1-yl]methyl}benzamide] | 8.19
CC(C)CC1(c2ccccc2)NC(=N)N(Cc2ccc(Cl)c(C(=O)NCc3ccc(F)cc3)c2)C1=O (centres unmarked) [Example 72, 2-chloro-N-(4-fluorobenzyl)-5-{[2-imino-4-(2-methylpropyl)-5-oxo-4-phenylimidazolidin-1-yl]methyl}benzamide] | 9.5
N=C1NC(c2ccccc2)(c2ccccc2)C(=O)N1Cc1ccc(Cl)c(C(=O)NCc2cnccn2)c1 [Example 73, 2-chloro-5-[(2-imino-5-oxo-4,4-diphenylimidazolidin-1-yl)methyl]-N-(pyrazin-2-ylmethyl)benzamide] | 11
N#Cc1ccc(CNC(=O)c2cc(CN3C(=N)NC(c4ccccc4)(c4ccccc4)C3=O)ccc2Cl)cc1 [Example 74, 2-chloro-N-(4-cyanobenzyl)-5-[(2-imino-5-oxo-4,4-diphenylimidazolidin-1-yl)methyl]benzamide] | 11.4
CC(C)CC1(c2ccccc2)NC(=N)N(Cc2ccc(Cl)c(C(=O)NCc3cnccn3)c2)C1=O (centres unmarked) [Example 75, 2-chloro-5-{[2-imino-4-(2-methylpropyl)-5-oxo-4-phenylimidazolidin-1-yl]methyl}-N-(pyrazin-2-ylmethyl)benzamide] | 31.3
CC(C)CC1(c2ccccc2)NC(=N)N(Cc2ccc(Cl)c(C(=O)N[C@H](C)c3ccc(F)cc3)c2)C1=O (stereo partly drawn) [Example 76, 2-chloro-N-[(1R)-1-(4-fluorophenyl)ethyl]-5-{[2-imino-4-(2-methylpropyl)-5-oxo-4-phenylimidazolidin-1-yl]methyl}benzamide] | 40.1
COc1ccc(CN2C(=N)NC(c3ccccc3)(c3ccccc3)C2=O)cc1C(=O)N(C)[C@H](C)c1ccccc1 [Example 77, 5-[(2-imino-5-oxo-4,4-diphenylimidazolidin-1-yl)methyl]-2-methoxy-N-methyl-N-[(1R)-1-phenylethyl]benzamide] | 43.4
COc1ccc(CN2C(=N)NC(c3ccccc3)(c3ccccc3)C2=O)cc1C(=O)N(C)Cc1ccc(F)cc1 [Example 78, N-(4-fluorobenzyl)-5-[(2-imino-5-oxo-4,4-diphenylimidazolidin-1-yl)methyl]-2-methoxy-N-methylbenzamide] | 53.6
C[C@H](c1ccc(F)cc1)N(C)C(=O)c1cncc(CN2C(=N)NC(c3ccc(F)cc3)(c3ccc(F)cc3)C2=O)c1 [Example 79, 5-{[4,4-bis(4-fluorophenyl)-2-imino-5-oxoimidazolidin-1-yl]methyl}-N-[(1R)-1-(4-fluorophenyl)ethyl]-N-methylpyridine-3-carboxamide] | 13.7
CN(Cc1ccc(F)cc1)C(=O)c1cncc(CN2C(=N)NC(c3ccc(F)cc3)(c3ccc(F)cc3)C2=O)c1 [Example 80, 5-{[4,4-bis(4-fluorophenyl)-2-imino-5-oxoimidazolidin-1-yl]methyl}-N-(4-fluorobenzyl)-N-methylpyridine-3-carboxamide] | 15.4
CN(Cc1ccc(Cl)cc1)C(=O)c1cncc(CN2C(=N)NC(c3ccc(F)cc3)(c3ccc(F)cc3)C2=O)c1 [Example 81, 5-{[4,4-bis(4-fluorophenyl)-2-imino-5-oxoimidazolidin-1-yl]methyl}-N-(4-chlorobenzyl)-N-methylpyridine-3-carboxamide] | 22.7
CN(Cc1ccc(Cl)cn1)C(=O)c1cncc(CN2C(=N)NC(c3ccc(F)cc3)(c3ccc(F)cc3)C2=O)c1 [Example 82, 5-{[4,4-bis(4-fluorophenyl)-2-imino-5-oxoimidazolidin-1-yl]methyl}-N-[(5-chloropyridin-2-yl)methyl]-N-methylpyridine-3-carboxamide] | 43.7
CC(C)CCC1(c2ccccc2)NC(=N)N(Cc2cncc(C(=O)N(C)Cc3ccc(C#N)cc3)c2)C1=O (centres unmarked) [Example 83, N-(4-cyanobenzyl)-5-{[2-imino-4-(3-methylbutyl)-5-oxo-4-phenylimidazolidin-1-yl]methyl}-N-methylpyridine-3-carboxamide] | 50.4
CC(C)CC1(c2ccccc2)NC(=N)N(Cc2cncc(C(=O)N(C)Cc3ccc(C#N)cc3)c2)C1=O (centres unmarked) [Example 84, N-(4-cyanobenzyl)-5-{[2-imino-4-(2-methylpropyl)-5-oxo-4-phenylimidazolidin-1-yl]methyl}-N-methylpyridine-3-carboxamide] | 93
CN(Cc1ccc(C#N)cc1)C(=O)c1ccnc(CN2C(=N)NC(c3ccccc3)(c3ccccc3)C2=O)c1 [Example 85, N-(4-cyanobenzyl)-2-[(2-imino-5-oxo-4,4-diphenylimidazolidin-1-yl)methyl]-N-methylpyridine-4-carboxamide] | 5.4
CN(Cc1ccc(Cl)cc1)C(=O)c1ccnc(CN2C(=N)NC(c3ccccc3)(c3ccccc3)C2=O)c1 [Example 86, N-(4-chlorobenzyl)-2-[(2-imino-5-oxo-4,4-diphenylimidazolidin-1-yl)methyl]-N-methylpyridine-4-carboxamide] | 7.72
